From paper PMC3691639, “Aldose reductase from Schistosoma japonicum: crystallization and structure-based inhibitor screening for discovering antischistosomal lead compounds” (Parasites & Vectors, 2013)

Target: T1, recombinant Schistosoma japonicum aldose reductase (rSjAR; SjAR) (Schistosoma japonicum, UniProt Q5DD64)
T1 construct: gene Akr1b4; SjAR-pET28a plasmid, expressed in E. coli BL21(DE3)
T1 sequence (Q5DD64 1-310): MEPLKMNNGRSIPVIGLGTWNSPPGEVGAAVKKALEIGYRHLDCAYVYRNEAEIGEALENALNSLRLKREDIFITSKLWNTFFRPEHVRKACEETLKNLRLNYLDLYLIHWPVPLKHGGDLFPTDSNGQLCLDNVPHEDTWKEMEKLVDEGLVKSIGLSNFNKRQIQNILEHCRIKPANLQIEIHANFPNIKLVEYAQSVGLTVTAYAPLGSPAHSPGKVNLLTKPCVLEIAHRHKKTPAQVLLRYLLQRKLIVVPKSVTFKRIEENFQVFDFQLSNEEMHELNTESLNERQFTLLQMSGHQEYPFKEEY
Assay: NADPH depletion at […] nm, microplate
Format: biochemical

For `O=C1c2ccccc2C(=C2c3ccccc3C(=O)c3ccccc32)c2ccccc21` [AR9], the IC50 was 30.6 µM.
